According to patent US5965743A, “N-substituted imidazol derivative” (Nippon Soda Co., Ltd., priority 1994, dated 1999):
pIC50: −log10 of the molar value. Like-named read-outs stand apart in the source and are kept apart here.

Assays:
[1] = test system: biosynthesis of cholesterol; assay: Inhibitory effect on biosynthesis of cholesterol in cell-free biosystem; type: biochemical, rat (SD-strain); conditions: cell-free rat liver enzyme system, 90 min, 37° C., pH 7.4; read-out: 50% Inhibitory Concentration (IC50), cholesterol biosynthesis
Description: Inhibitory Effect on Biosynthesis of Cholesterol in Cell-free Biosystem
(1) Preparation of Enzyme Reaction System
The preparation of the enzymatic system for the biosynthesis of cholesterol in rats was carried out according to the method described in Biochimica et Biophysica Acta, Vol.486, pp 70-81, 1977.
More particularly, SD-strain female rats weighing from […] were fed for 7 to 10 days with a diet containing 2% cholestyramine to enhance their biosynthetic activity of cholesterol. After killed the rats by means of depletion of blood in midnight, the livers thereof were removed and homogenized with a double volume of 0.1 M potassium phosphate buffer solution (pH 7.4) containing 15 mM nicotine amide and 2 mM magnesium chloride by using a loose fitting-type teflon homogenizer. The supernatant obtained by centrifuging the homogenate at 12,000×g for 30 min. was further centrifuged at 105,000×g for 90 min., thereby separating it to the microsome fraction and the supernatant fraction. The supernatant obtained were kept as the fraction resulting in the precipitation in 40-80% ammonium sulfate (hereinafter referred to as "soluble fraction"). Each of the soluble fraction and the microsome fraction were independently adjusted with 0.1 M potassium phosphate buffer solution (pH 7.4) to the volumes of 1 ml/g of liver and 1 ml/3 g of liver, respectively, and were kept and used in the subsequent tests as an enzyme solution for the mixing ratio of 16:1.
(2) Method for Measuring Cholesterol Biosynthesis Activity
Cholesterol biosynthesis activity was measured according to the method described in Biochimica Biophysica Acta, Vol.486, pp 70-81, 1977. 2 μl dimethylsulfoxide solution of the test compound were added to a solution composed of 50 μl of the enzyme solution prepared in (1) described above, 0.1 M potassium phosphate buffer solution (pH 7.4), 1 mM ATP, 5 mM glucose-1-phosphate, 6 mM glutathione, 6 mM magnesium chloride, 0.04 mM coenzyme A, 0.25 mM NAD, 0.25 mM NADP and 1 mM 2-^14 C-sodium acetate (111 MBq./mmol), and the resultant solution was adjusted to the whole volume of 0.2 ml and then allowed to a reaction for 90 min. at 37° C. while shaking. The reaction was then stopped by adding 1 ml of 15% ethanol solution of potassium hydroxide, and the solution was then heated for 1 hour at 75° C. After extracted unsaponificated products with hexane from the solution, the solution was then condensed and dried to the hard state and subsequently dissolved in small volume of a mixture of chloroform and methanol (mixing ratio; 1:2). The resultant chloroform-methanol solution was spotted on a pre-coated silica gel TLC plate, then developed with a developer composed of benzene and ethyl acetate (mixing ratio; 9:1). The cholesterol spot was then taken out from the plate, and the radient activity of the spot was measured by using a liquid scintillation counter. Based on the radio-activity measured, mthe 50% inhibitory concentration (IC50) of the compounds of the present invention were determined.

[2] = test system: cholesterol biosynthesis; assay: In vivo inhibition test on cholesterol biosynthesis in mice; design: species or system mouse (Crj:ICR-strain); conditions: n = 5, 30 mg/kg oral; for 14C-Cholesterol in serum: control group 3783 (for 1-71), 5694 (for 2-64, 2-71, 2-72); for Inhibition Rate on cholesterol biosynthesis: vs control group
Description: In Vivo Inhibition Test on Cholesterol Biosynthesis
For this test, Crj:ICR-strain male mice aged 7-9 weeks were provided. The mice were fed with a diet containing 2% cholestyramine for 7 to 10 days under reversed lighting condition, namely the mice were placed in dark condition during 7:00 AM to 7:00 PM. Each of the test compounds was dissolved or suspended in either distillated water or 1% aqueous solution of poly(oxyethylene) curing castor oil and was orally administrated to the mice at a dose of 30 mg/kg at 10:30 AM, respectively. After 1 hour following to the administration of the test compound, the mice were intraperitoneally administrated with ^14 C-sodium acetate at a dose of 5 μCi/0.5 ml/mouse, respectively. After 2 hours, blood sampling was performed for each mouse from the abdominal aorta under anesthesia with ether and the blood sampled were placed into plastic test tubes being placed with blood separating agent beforehand to separate the serum, respectively. Each 0.5 ml of the serum was then added with 1 ml of 20% ethanol solution of potassium hydroxide and heated for 3 hours at 75° C. After extracting the unsponified substance with n-hexane, the serum was condensed to the dry hard state and dissolved in small amount of a mixed solution of chloroform and methanol (mixing ratio; 1:2). The resultant chloroform-methanol solution was then spotted on pre-coated silica gel TLC and developed with a mixed solution of benzene and ethyl acetate (mixing ratio; 9:1). The cholesterol spot was then taken out and the radio-activity thereof was measured by using a liquid scintillation counter. Based on the radio-activity measured, the inhibition rate on cholesterol biosynthesis were determined respectively for the compounds of the present invention.

[3] = test system: Triton WR-1339-Induced Hyperlipemia Mice; assay: Effect on serum lipid in Triton WR-1339-induced hyperlipemia mice; type: in vivo, mouse (Crj:ICR-strain); conditions: Mus musculus, po (3 x 33.3 mg/kg), average of 10 animals, 24 hours
Description: For this test, Crj:ICR-strain male mice aged 7-9 weeks were provided. […] After 24 hours, blood sampling was performed for each mouse from the abdominal aorta under anesthesia with ether, and the collected blood were placed into plastic test tubes being placed with a blood separating agent beforehand, then after 30 min. or 1 hour, the blood sampled was centrifuged at 10,000 rpm to obtain the serum. Total cholesterol value, HDL cholesterol value and total triglyceride value in the serum were respectively measured by using the measuring kits and automatic biochemical analyser.

[4] = read-out: % Change of Serum Lipid to Control Group: HDL Cholesterole
[5] = read-out: % Change of Serum Lipid to Control Group: Total Cholesterole
[6] = read-out: % Change of Serum Lipid to Control Group: Total glyceride

SMILES	pIC50 [1]	14C-Cholesterol in serum [2] [dpm/1 ml Serum]	Inhibition Rate on cholesterol biosynthesis [2] [%]	change in vivo at 100 mg/kg [3, 4] [%]	change in vivo at 100 mg/kg [3, 5] [%]	change in vivo at 100 mg/kg [3, 6] [%]
O=S(=O)(CCCOc1ccc(-n2ccnc2)cc1)c1ccccc1 [Compound 1-71]	5.62	575	85	82	-23	-20
c1ccc(SCCCOc2ccc(Cn3ccnc3)cc2)cc1 [Compound 2-64, 1-[4-(3-phenylthiopropyloxy)benzyl]imidazole]	5.22	460	92			
O=S(=O)(CCCOc1ccc(Cn2ccnc2)cc1)c1ccccc1 [Compound 2-71]		73	99	60	-30	-21
c1ccc(OCCCOc2ccc(Cn3ccnc3)cc2)cc1 [Compound 2-72]	5.22	3980	30	28	-21	-29
